Assay results as given in patent US6676950B2, “Neurokinin receptor antagonists and methods of use thereof for inhibiting HIV infection” (The Children's Hospital of Philadelphia, priority 2001, dated 2004).

Experiments:
IL-6 = test: LPS-stimulated IL-6 production in MDM by ELISA; assay type: cell-based, human; conditions: 10^−9 to 10^−7M; LPS 1 ng/ml; 24 h
Protocol: In order to determine the role of CP-96,345 in the regulation of cytokine secretion, 7-day-cultured MDM were incubated with or without CP-96,345 (10^−9 to 10^−7M) and/or LPS (1 ng/ml) for 24 h. The culture supernatants were collected to determine TNF-A and IL-6 levels by ELISA. The ELISA kits were purchased from Endogen, Inc. (Woburn, Mass.).

HIV Bal strain = test: HIV-induced syncytia formation in MDM; assay type: cell-based; conditions: 10^−7M; 12 days after infection; light microscope
Protocol: Syncytia formation: To study the effect of neuropeptide antagonists on HIV-induced syncytia formation in MDM, 7-day-cultured macrophages were incubated in the presence or absence of CP-96,345 (10^−7M) for 2 h and then infected with HIV Bal strain. MDM which were neither incubated with CP-96,345 nor infected with HIV were used as a cell culture control. The morphology of HIV-induced syncytia formation was observed and photographed by a light microscopy (X 400) 12 days after HIV infection.

Which “IL-6 production in MDM” value (IL-6) does the source give for `COc1ccccc1CN[C@H]1C2CCN(CC2)[C@H]1C(c1ccccc1)c1ccccc1` [CP-96,345, [2S,3S)-cis-2-(diphenylmethyl)-N-[(2-methoxyphenyl)-methyl]-1-azabicyclo [[2.2.2]-octan-3-amine]] here?
The value was “not affected”.

And the “giant syncytia formation induced by HIV Bal strain infection” value (HIV Bal strain)?
The value was “failed to develop the giant syncytia”.
